# Laboratory results reported in patent US7465471B2, “Palatability of aquaculture feed” (Novus International, Inc., priority 2003, dated 2008).
# “And” between values parts separate entries of the source, which are not always exact repeats. Equal entries are not always repeated. Where two headings read alike, the source gives them in different places.
# Columns and labels:
# cats = test: No-choice acceptance of food, cats (Example 24); type: in vivo; conditions: Feline
# Text: (§1) Acceptance of food containing […]® or DLM was studied to evaluate dietary consumption under no-choice conditions. […] The urine pH of six of the cats was also monitored. The diets described in Tables 39 and 40 above were used.
# dogs = test: No-choice acceptance of food, dogs (Example 24); type: in vivo; conditions: Canine
# Text: as §1
# mold = test: Mold growth in starter mash by CO2 formation in headspace (Examples 7, 8); conditions: for mold growth (CO2 in headspace), words: 0.2% in starter mash
# Protocol: Fungal growth in basal starter mash was studied in compositions supplemented with DLM or Alimet® as the methionine source. Total microbial growth was monitored by measuring carbon dioxide (CO2) formation in sealed vessels at 28° C. over time.
# The technique of using a closed system and measuring CO2 formation has been verified as an approximation of the conditions found in grain storage bins. See, e.g., Muir et al., Trans. ASAE, 28(5) 1673-1675 (1985), the contents of which are hereby incorporated by reference in their entirety.
# A mash starter mash feed (formulation shown in Table 9, below) was subdivided into three groups: basal (control), 0.2% DLM, or 0.2% Alimet®. The feed studied had no commercial mold inhibitors added, and is representative of a typical broiler feed.
# Initial moisture of the feed was 10.8%. After the addition of Alimet® or DLM, the moisture of the samples was adjusted by the addition of 2%, 4%, or 6% sterile distilled water to promote mold growth, achieving three moisture groups: […].
# For each study, four replicate samples of each moisture group were mixed, and 600 g of the mixture was placed into 1 L containers, sealed, and placed at 28° C. in a temperature-controlled room. Draeger Detector tubes (CO2-measuring, obtained from Fisher Scientific) were used to measure the developed CO2 at different days following vessel sealing (two measurements were made per week). Draeger Short-Term Detector Tubes are glass tubes filled with inert carrier and an indicating reagent. The reagent produces a colorimetric indication in the presence of a particular gas (CO2). The concentration of gas is read directly from the discoloration on the tube's printed scale.
# The specific mold species present were not identified. Statistical analysis was accomplished by using Duncan's multiple range test (SAS). Different letters on individual time points in FIGS. 9-11 indicate statistical differences of P<0.05.
# The experiment described above in Example 7 was repeated with blends of 2.0 lb/ton, 1.5 lb/ton, 1.0 lb/ton or 0.5 lb/ton of 65% propionic acid and either […]. The blends were prepared according to the matrix outlined in Table 8, below. The 65% propionic acid was buffered with ammonium hydroxide to a pH of 5.5.
# S. enteritidis = S. enteritidis colony counts in broth (Examples 1-3, 17)
# C. jejuni = C. jejuni colony counts in broth (Example 1); type: cell-based; conditions: for Δ log: Table 4, 6 h, initial 5.23
# Protocol: C. jejuni grown on Campylobacter blood-free selective agar was used for inoculation. Preston broth was incubated under reduced oxygen atmosphere for 6 hours at 37° C. Colony counts were performed.
# Lactobacillus plantarum = test: L. plantarum colony counts in broth at pH 3.5 (Example 16); type: cell-based; conditions: log 6 hours − log initial (5.61)
# Protocol: Fresh overnight culture L. plantarum in Brain Heart Infusion broth is used to inoculate medium 5 at a log 4.1 cfu/mL at pH 3.5. The tubes are incubated under oxygen reduced atmosphere for 6 hours at 37° C. Colony counts are performed according standard procedures.
# E. coli [1] = type: cell-based; conditions: for Δ log: Table 2, 4 h, initial 5.24
# Protocol: Colony counts were performed according to standard operating procedures.
# E. coli [2] = test: E. coli colony counts over time in soy broth at pH 4 or 7.3 (Example 5); type: cell-based; conditions: FIG. 5
# Protocol: The cultures were incubated, and colony counts performed at increasing times.
# L. plantarum = L. plantarum colony counts in broth (Example 1); type: cell-based; conditions: for Δ log: Table 3, 6 h, log sample − log initial (5.04)
# Protocol: The fresh overnight culture of L. plantarum in brain heart infusion broth were used to inoculate medium 5. The test tubes were incubated under reduced oxygen atmosphere for 6 hours at 37° C. Colony counts were performed.
smiles,measurement,setting,value
"CSCCC(N)C(=O)O (racemic) [DLM, DL-methionine]","Total grams consumed, supplemented food",cats; DLM 0.25%,"1,842 grams"
same,"Total grams consumed, supplemented food",cats; DLM 0.3%,"1,754 grams"
same,"Total grams consumed, supplemented food",dogs; DLM 0.1%,"11,244 grams"
same,"Total grams consumed, supplemented food",dogs; DLM 0.15%,"13,542 grams"
same,"mold growth (CO2 in headspace), words","mold; 12.8% moisture, FIG. 11",sharp increase in mold growth after only twenty days
same,"mold growth (CO2 in headspace), words","mold; 16.8% moisture, FIG. 9",showed mold growth within two days
same,"mold growth, overall comparison","mold; FIGS. 9, 10, 11, vs untreated and each other",more likely to develop mold
O=CO [formic acid],effect on inhibiting the growth of S. enteritidis,S. enteritidis; pH 4.5,neither had a significant effect
same,reduction in S. enteritidis growth,S. enteritidis; pH 4.5,approximately 1.2 log cfu/mL
same,reduction of growth of S. enteritidis,S. enteritidis; pH 4.5,approximately 1.3 log cfu/mL
same,growth inhibition of S. enteritidis,S. enteritidis; pH 6.75,~1 log cfu/mL
same,inhibition of S. enteritidis,S. enteritidis; pH 6.75,no inhibition
same,Δ log,"C. jejuni; 0.108 g/L, pH 4.5",−1.37
same,Δ log,"C. jejuni; 0.108 g/L, pH 6.75",1.04
same,Δ log,"C. jejuni; 0.30 g/L, pH 4.5",−2.60
same,Δ log,"C. jejuni; 0.30 g/L, pH 6.75",1.15
same,Δ log,"C. jejuni; 0.83 g/L, pH 4.5",<−3.93
same,Δ log,"C. jejuni; 0.83 g/L, pH 6.75",1.02
same,inhibition of C. jejuni,C. jejuni; pH 4.5,comparable inhibition
same,antibacterial activity against C. jejuni,C. jejuni; pH 6.75,No antibacterial activity
same,log cfu/mL,C. jejuni; pH 6.75,6.27 log cfu/mL and 6.38 log cfu/mL and 6.25 log cfu/mL
same,Δ log,"Lactobacillus plantarum; Table 23, 3 g/kg",−2.42
same,Δ log,"Lactobacillus plantarum; Table 23, 5 g/kg",−5.91
same,Δ log,"E. coli [1]; 0.108 g/L, pH 4.5",−0.05
same,Δ log,"E. coli [1]; 0.108 g/L, pH 6.75",2.24
same,Δ log,"E. coli [1]; 0.30 g/L, pH 4.5",−0.28
same,Δ log,"E. coli [1]; 0.30 g/L, pH 6.75",2.26
same,Δ log,"E. coli [1]; 0.83 g/L, pH 4.5",−0.16
same,Δ log,"E. coli [1]; 0.83 g/L, pH 6.75",2.25
same,inhibition of E. coli,E. coli [1]; pH 4.5,little or no inhibition
same,log cfu/mL,E. coli [1]; pH 4.5,5.19 log cfu/mL and 4.96 log cfu/mL and 5.08 log cfu/mL
same,log reduction of E. coli growth,E. coli [1]; pH 4.5,approximately 0.1 log
same,inhibition of E. coli,E. coli [1]; pH 6.75,Neither Alimet® nor formic acid inhibited E. coli
same,log cfu/mL,E. coli [1]; pH 6.75,7.48 log cfu/mL and 7.50 log cfu/mL and 7.49 log cfu/mL
same,decrease of colony counts of E. coli vs hydrochloric acid,E. coli [2],better than hydrochloric acid
same,inhibition of L. plantarum,L. plantarum,Neither Alimet® nor formic acid inhibited L. plantarum
same,Δ log,"L. plantarum; 0.108 g/L, pH 4.5",0.71
same,Δ log,"L. plantarum; 0.108 g/L, pH 6.75",0.84
same,Δ log,"L. plantarum; 0.30 g/L, pH 4.5",0.70
same,Δ log,"L. plantarum; 0.30 g/L, pH 6.75",1.19
same,Δ log,"L. plantarum; 0.83 g/L, pH 4.5",0.52
same,Δ log,"L. plantarum; 0.83 g/L, pH 6.75",1.15
same,log cfu/mL,L. plantarum; pH 4.5,5.75 log cfu/mL and 5.74 log cfu/mL and 5.56 log cfu/mL
